Each structure is given as a SMILES string. Where two headings read alike, the source gives them in different places.

Results on 17 molecules are retold here after US10195189B2, “2-phenethenyltetrahydro isoquinolines useful as anti-HIV compounds” (priority 2014, dated 2019).

Series [1] relates to MT-2 cells. The series can be described thus: Cytotoxicity assay (AlamarBlue) in mock infected MT-2 cells. The format is cell-based, human. As for the experimental part: (§1) The present assay was used to screen candidate antiviral compounds by quantification of virus spread and production over several rounds of infection in vitro. MT-2, a HIV-1 permissive human T-cell line, was seeded in microtiter plates and was simultaneously treated with serially diluted compound and inoculated with a HIV-1 NL4-3 viral clone engineered to express Renilla luciferase in place of Net Following treatment, the culture was incubated for 96 hours. After the incubation, media was collected and used to estimate relative infectivity on the indicator cell line, TZM-bl. Additionally, viral spread was quantified by measuring luciferase activity via a commercially available luciferase substrate. In parallel, MT-2 cells were seeded and inoculated with mock virus in the presence of serially diluted compound. Compound toxicity was quantified 96 hours after treatment with AlamarBlue.
(§2) MT-2 (NIH Aids reagent program 237) cells were grown and maintained in an incubator at 37° C. with 5% CO2 using a basal medium of RPMI-1640 supplemented with 10% FBS. Cells were seeded in 100 μl at 2×10^4 cells/well in white walled 96-well microtiter plates. Candidate compounds were 3-fold serially diluted in the appropriate solvent. Solvent without compound was used as a no drug reference. Cells were inoculated at a multiplicity of 0.027 with an HIV-1 NL4-3 virus stock engineered to express Renilla luciferase in place of Net Diluted virus stock was first added to serially diluted compound. Compound and virus were delivered to cells in an equal volume (100 μl) and treated cultures were returned to the incubator for 96 hours. In parallel, plates for cytotoxicity estimates were prepared in the same way except cells were plated in clear walled 96-well microtiter plates and were mock infected.
(§3) At 96 hours post treatment, 20 μl AlamarBlue proliferation reagent was added to 200 μl treated and mock infected cultures and incubated for 3 hours at 37° C. with 5% CO2 then read at 545, 590 nm on fluorescence plate reader (Biotek).
(§4) For all assays, data was imported into Accelrys Assay Explorer 3.3. In Assay Explorer, % inhibition (antiviral or cytotoxicity) was calculated using the solvent control as a reference by the following equation: 1−(SignalCompound/SignalReference). The % Inhibition and compound concentration data was fitted using the following 4-parameter logistic model (Assay Explorer model 42):
(§5) [formula] where X is compound concentration, Y is % inhibition, D is the maximum % Inhibition (constrained to 100%), C is IC50 value or inflection point, B is the hill slope, and A is the minimum % inhibition (constrained to 0%). The IC50 value is reported as the EC50 or CC50 depending on the assay endpoint. EC50 represents the effective concentration at which virus replication is inhibited by 50 percent. CC50 represents the concentration that results in the death of 50 percent of the host cells. The selectivity or therapeutic index (SI or TI), is the ratio of CC50 over EC50 and represents the relative effectiveness in inhibiting viral replication compared to inducing cell death.
Background: Alamar Blue is a resazurin reagent that responds to reducing activity.

In series [2] the test system is HIV-1 NL4-3 viral clone expressing Renilla luciferase. As to the kind of experiment: microbe, parasite or virus in culture. It is filed as cell-based. Summed up: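 MT-2 cells (2×10^4/well) were infected at MOI 0.027 with Renilla-luciferase HIV-1 NL4-3 alongside 3-fold compound dilutions for 96 h. Spread was read by EnduRen luminescence and supernatant infectivity on TZM-bl (48 h, MUG fluorescence). Mock-infected cytotoxicity used AlamarBlue. % inhibition versus solvent was fitted by 4-parameter logistic (0–100% constrained) for EC50/CC50.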

Series [3] can be described thus: Cytotoxicity assay (AlamarBlue) in mock infected MT-2 cells. It is filed as cell-based, human. The conditions noted are these: human. As for the experimental part:
as §1, §2, §3, §4, §5

[4] abbreviates: mock infected MT-2 cells, 96 hours, AlamarBlue, read-out: CC50.
Where [5] appears, read: Human immunodeficiency virus 1, NL43, MT2, 96 h.

For the molecule `COc1cc(C(C)(C)C)c(/C=C/C2NCCc3cc(OCc4ccccc4)c(OC)cc32)cc1OCc1ccccc1` (stereo not shown) [AS, 6-Benzyloxy-1-[(E)-2-(5-benzyloxy-2-tert-butyl-4-methoxy-phenyl)vinyl]-7-methoxy-1,2,3,4-tetrahydroisoquinoline], in series [1] (setting [4]), the 50% cytotoxic concentration (CC50) (commonly the concentration giving 50% cytotoxicity) amounted to 5.36 µM. Besides, in series [2] (setting [5]), it took 4.22 µM to reach a half-maximal effect (EC50).
In series [1], `COc1cc2c(cc1OCc1ccccc1)CCNC2/C=C/c1ccc2cn[nH]c2c1` (stereo not shown) [BT, 6-Benzyloxy-1-[(E)-2-(1H-indazol-6-yl)vinyl]-7-methoxy-1,2,3,4-tetrahydroisoquinoline] registered a CC50 of 7.98 µM. For the same molecule, in series [2] (MT-2 cells infected with HIV-1 NL4-3, 96 hours, read-out: EC50), the EC50 (in general, the concentration that produces a half-maximal response) came to 0.613 µM.
For the molecule `COc1ncc(/C=C/C2NCCc3cc(OCc4ccccc4)c(OC)cc32)cn1` (stereo not shown) [DD, (E)-(benzyloxy)-7-methoxy-1-(2-(2-methoxypyrimidin-5-yl)vinyl)-1,2,3,4-tetrahydroisoquinoline], the cytotoxic concentration (CC50) in series [1] (human, 96 h) stood at 100 µM. In series [2] (setting [5]), this molecule came in with an EC50 of 11.1 µM.
Molecule `CCOCc1cc(/C=C/C2NCCc3cc(OCc4ccccc4)c(OC)cc32)ccc1OC` (stereo not shown) [EP, (E)-6-(benzyloxy)-1-(3-(ethoxymethyl)-4-methoxystyryl)-7-methoxy-1,2,3,4-tetrahydroisoquinoline] displayed a 50% cytotoxic concentration (CC50) at 96 h in series [3] of 4 µM. In series [2] (setting [5]), this molecule yielded an EC50 of 0.846 µM.
In the case of `COc1cc(C)c(/C=C/C2c3cc(OC)c(OCc4ccccc4)cc3CCN2C(=O)c2cccc(N)n2)cc1OCc1ccccc1` (stereo not shown) [Example F, (6-Amino-2-pyridyl)-[6-benzyloxy-1-[(E)-2-(5-benzyloxy-4-methoxy-2-methyl-phenyl)vinyl]-7-methoxy-3,4-dihydro-1H-isoquinolin-2-yl]methanone], the midpoint of cytotoxicity in series [1] (human, 96 h), the CC50, lay at 100 µM. The same molecule yielded an EC50 in series [2] (setting [5]) of 5.05 µM.
On to `COc1cc(C)c(/C=C/C2c3cc(OC)c(OCc4ccccc4)cc3CCN2C(=O)c2cnccn2)cc1OCc1ccccc1` (stereo not shown) [Example H, [6-Benzyloxy-1-[(E)-2-(5-benzyloxy-4-methoxy-2-methyl-phenyl)vinyl]-7-methoxy-3,4-dihydro-1H-isoquinolin-2-yl]-pyrazin-2-yl-methanone], for which the midpoint of cytotoxicity in series [1] (human, 96 h), the CC50, lay at 100 µM. Moreover, the EC50 in series [2] (setting [5]) is 4.48 µM.
The corresponding values for `COC(=O)N1CCc2cc(OCc3ccccc3)c(OC)cc2C1/C=C/c1cc(OC)c(OC)cc1C` (stereo not shown) [Example I, Methyl 6-benzyloxy-1-[(E)-2-(4,5-dimethoxy-2-methyl-phenyl)vinyl]-7-methoxy-3,4-dihydro-1H-isoquinoline-2-carboxylate] are 100 µM and 4.48 µM.
In series [1] (human, 96 h), `COc1cc(C)c(/C=C/C2c3cc(OC)c(OCc4ccccc4)cc3CCN2C(=O)c2cccnc2N)cc1OCc1ccccc1` (stereo not shown) [Example K, (2-Amino-3-pyridyl)-[6-benzyloxy-1-[(E)-2-(5-benzyloxy-4-methoxy-2-methyl-phenyl)vinyl]-7-methoxy-3,4-dihydro-1H-isoquinoline-2-yl]methanone] showed a CC50 of 100 µM. In addition, the EC50 in series [2] (setting [5]) worked out at 2.88 µM.
For `COc1cc(C)c(/C=C/C2c3cc(OC)c(OCc4ccccc4)cc3CCN2C(=O)c2ccccn2)cc1OCc1ccccc1` (stereo not shown) [Example M, [6-benzyloxy-1-[(E)-2-(5-benzyloxy-4-methoxy-2-methyl-phenyl)vinyl]-7-methoxy-3,4-dihydro-1H-isoquinolin-2-yl]-(2-pyridyl)methanone], in that order: 100 µM and 2.09 µM.
Regarding `COc1cc(C)c(/C=C/C2c3cc(OC)c(OCc4ccccc4)cc3CCN2C(=O)c2ccnc(N)c2)cc1OCc1ccccc1` (stereo not shown) [Example N, (2-amino-4-pyridyl)-[6-benzyloxy-1-[(E)-2-(5-benzyloxy-4-methoxy-2-methyl-phenyl)vinyl]-7-methoxy-3,4-dihydro-1H-isoquinolin-2-yl]methanone], half-maximal cytotoxicity in series [1] (human, 96 h) (CC50) was put at 100 µM. The same molecule registered an EC50 in series [2] (setting [5]) of 2.03 µM.
In series [1] (human, 96 h), `COc1cc(C)c(/C=C/C2c3cc(OC)c(OCc4ccccc4)cc3CCN2C(=O)c2ccc(N)nc2)cc1OCc1ccccc1` (stereo not shown) [Example P, (6-amino-3-pyridyl)-[6-benzyloxy-1-[(E)-2-(5-benzyloxy-4-methoxy-2-methyl-phenyl)vinyl]-7-methoxy-3,4-dihydro-1H-isoquinolin-2-yl]methanone] had a 50% cytotoxic concentration (CC50) of 100 µM. Besides, a half-maximal response in series [2] (setting [5]) (EC50) required 1.69 µM.
On to `COc1cc(C)c(/C=C/C2c3cc(OC)c(OCc4ccccc4)cc3CCN2C(N)=O)cc1OCc1ccccc1` (stereo not shown) [Example R, 6-benzyloxy-1-[(E)-2-(5-benzyloxy-4-methoxy-2-methyl-phenyl)vinyl]-7-methoxy-3,4-dihydro-1H-isoquinoline-2-carboxamide], for which the 50% cytotoxic concentration (CC50) in series [1] (setting [4]) was 39.3 µM. The same molecule gave an EC50 in series [2] (setting [5]) of 1.18 µM.
As to `COc1cc(C)c(/C=C/C2c3cc(OC)c(OCc4ccccc4)cc3CCN2C(=O)c2cccnc2)cc1OCc1ccccc1` (stereo not shown) [Example T, [6-benzyloxy-1-[(E)-2-(5-benzyloxy-4-methoxy-2-methyl-phenyl)vinyl]-7-methoxy-3,4-dihydro-1H-isoquinolin-2-yl]-(3-pyridyl)methanone], the CC50 in series [1] (human, 96 h) stood at 100 µM. The EC50 in series [2] (setting [5]) came out at 0.93 µM.
Molecule `COc1cc2c(cc1OCc1ccccc1)CCNC2/C=C/c1ccccc1C` (stereo not shown) [Example W, 6-benzyloxy-7-methoxy-1-[(E)-2-(o-tolyl)vinyl]-1,2,3,4-tetrahydroisoquinoline] registered an EC50 in series [2] (setting [5]) of 0.69 µM.
Turning to `COc1cc2c(cc1OCc1ccccc1)CCNC2/C=C/c1ccc(F)cc1C` (stereo not shown) [Example X, 6-benzyloxy-1-[(E)-2-(4-fluoro-2-methyl-phenyl)vinyl]-7-methoxy-1,2,3,4-tetrahydroisoquinoline], a half-maximal effect in series [2] (setting [5]) (EC50) was put at 0.62 µM.
Consider `COc1cc(C)c(/C=C/C2c3cc(OC)c(OCc4ccccc4)cc3CCN2C(=O)OC(C)(C)C)cc1OCc1ccccc1` (stereo not shown) [Example Y, tert-butyl 6-benzyloxy-1-[(E)-2-(5-benzyloxy-4-methoxy-2-methyl-phenyl)vinyl]-7-methoxy-3,4-dihydro-1H-isoquinoline-2-carboxylate], for which a half-maximal effect in series [2] (setting [5]) (EC50) was put at 0.39 µM.
Consider `COc1ccc(/C=C/C2NCCc3cc(OCc4ccccc4)c(OC)cc32)c(C(F)(F)F)c1` (stereo not shown) [Example Z, 6-benzyloxy-7-methoxy-1-[(E)-2-[4-methoxy-2-(trifluoromethyl)phenyl]vinyl]-1,2,3,4-tetrahydroisoquinoline], for which, in series [1] (setting [4]), the half-maximal cytotoxic concentration (CC50) worked out at 100 µM. Moreover, in series [2] (setting [5]), the EC50 was found to be 0.35 µM.
